Laboratory results from patent publication US9777015B2, “Useful thiophene derivatives in the treatment of diabetes” (METABRAIN RESEARCH, priority 2012, dated 2017).

What was measured:
[1] = test system: isolated perfused pancreases of N0STZ diabetic rats; test: Insulin secretion in response to glucose at isolated perfused pancreases of N0STZ diabetic rats; set-up: species or system rat; conditions: isolated perfused pancreases of N0STZ diabetic rats
Procedure: The pancreas was taken on rats made to be diabetic by injection of Streptozotocin on the day of birth and anesthetized with Pentobarbital (Nembutal©: 45 mg/kg; intraperitoneal route). These rats have a specific deficiency of the insulin response to glucose, as observed in humans with diabetes of type II. The isolation and the perfusion of the pancreas were achieved according to a modification of the procedure described by Sussman et al.. The effect of the compounds or reference substances is tested for 35 minutes (from t=20 min to t=55 min) in Krebs buffer in the absence (GO) or in the presence of glucose at 2.8 mM (G2.8 mM), and then 20 minutes (from t=55 min to t=75 min) in the presence of glucose 16.5 mM. The concentration of insulin secreted into the medium is measured by an Elisa assay (ELISA Alpco Cat no. 80-INSRTH-E10). The results are expressed as an average+/−SEM (Standard Error of the Mean) of several experiments.

GK (Goto-Kakisaki) rats = test: Antidiabetic activity in GK (Goto-Kakisaki) rats, intravenous glucose tolerance test (IVGTT); format: in vivo, rat; conditions: single oral dose 20 mg/kg
Procedure: The antidiabetic activity of compound 10 was evaluated in GK rats, a non-obese model of diabetes of type II. This model was obtained by cross-breeding of Wistar rats selected on the basis of a slight intolerance to glucose. These rats have the majority of dysfunctions observed in diabetes of type II in humans: hyperglycemia, intolerance to glucose, insulin-resistance, and deteriorated insulin response to glucose. These animals were bred at Metabrain and were housed in an animal housing facility with a regulated temperature (22±2° C.) under constant humidity (50±20%) with a day/night cycle of 12 h (light from 7 h-19 h) and have access ad libitum to food and drink. The housing and experimentation conditions comply with the European directives relating to health and ethical treatment of laboratory animals (ETS123). In this study, the rats used are female 16-week old GK rats having fasted for 2 hours before beginning the study (postabsorptive condition). A glucose tolerance test is carried out via an intravenous route (IVGTT) on 2 groups of rats: One group treated with the compound 10 orally at the single dose of 20 mg/kg and a control group treated orally with the carrier. The tolerance test is carried out 1 h after oral administration of compound 10 on the animals anesthetized beforehand with pentobarbital (45 mg/kg via an intraperitoneal route). A blood sample was taken at TO just before administration of the glucose load (0.5 g/kg via an intravenous route) and at x T5, T10, T15, T20 and T30 min after the glucose load. The blood samples are centrifuged in order to collect the plasma for determining glycemia. The results shown above are expressed • as a percentage of the decrease of glycemia at TO for the group treated with the compound 10, compared with the control group. • as a percentage of the decrease of AUC (area under the curve of glycemia versus time) for the group treated with the compound 10 as compared with the control group.

[2] = test system: hepatocytes isolated from Wistar rat liver; test: Test of inhibition of hepatic production of glucose (isolated hepatocytes, 3 h or 20 h incubation); format: cell-based; conditions: Rattus norvegicus, Hepatocyte, 3 h, hepatic glucose production, rat hepatocytes, 3 h incubation
Summary of the method: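 Hepatocytes from 24 h-fasted Wistar rats were cultured overnight in glucose-free RPMI with hydrocortisone (7.10^−5M). Glucose production was run for 3 h in Krebs with lactate/pyruvate plus compounds (0.1% DMSO final), or after an added 20 h pretreatment during the RPMI culture. Supernatant glucose was measured by glucose oxidase and expressed per mg protein (Lowry).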

INS-1 cells = test: Stimulation test of insulin secretion by INS-1 cells; format: cell-based; conditions: Rattus norvegicus, 1 h incubation, 3.5 mM glucose
Procedure: The different compounds were tested on an INS-1 beta-pancreatic line in order to evaluate their capability of potentializing the insulin secretion in response to glucose. Very briefly, the cells are cultivated in a culture medium, RPMI 1640 with 10 mM glucose containing 1 mM of sodium pyruvate, 50 μM of 2-mercaptoethanol, 2 mM of glutamine, 10 mM of HEPES, 100 IU/mL of penicillin, 100 μg/mL of streptomycin and 10% of inactivated fetal calf serum, as described by Asfari et al.. For the insulin secretion test, the INS-1 cells are sown and cultivated in 96-well plates. After 3 days of cultivation at 37° C. in a humid atmosphere (95% air/5% CO2), the medium is removed and the cells are incubated for 16 h in a medium containing 5 mM of glucose and 1% of inactivated fetal calf serum. On the day of the test, the cells are washed with a Krebs buffer (pH 7.4) containing 0.1% of bovine albumin and then pre-incubated for 30 min at 37° C. in this same buffer containing 2.8 mM of glucose. Finally, the cells are again washed with Krebs buffer and then incubated for 1 h in the buffer of the secretion test (Krebs, pH 7.4 containing 0.1% of bovine albumin and 3.5 mM of glucose and molecules to be evaluated). At the end of the test, the cell supernatant is recovered in order to measure therein the secreted insulin, by means of an ELISA kit using a rat anti-insulin antibody (ELISA Alpco Cat no. 80-INSRTH-E10). Each condition is tested in triplicate. The 3.5 mM glucose, the 10^−7M GLP-1 and the Forskoline 10^−7/IBMX 10^−5M mixtures are used as positive controls of the test. A compound stimulates the secretion of insulin if this factor is greater than or equal to 130% of the control for a given glucose dose.

`CCOC(=O)Cc1cc(C(=O)c2ccco2)sc1-c1ccc(Cl)cc1` [compound 10, ethyl 2-(2-(4-chlorophenyl)-5-(furan-2-carbonyl)thiophen-3-yl)acetate] was tested, and the “restoring insulin secretion in response to glucose” value [1] was “strongest secretions”, the intolerance to glucose (GK (Goto-Kakisaki) rats; GK rats, IVGTT 1 h after administration) was “capable of reducing” and the basal hyperglycemia (GK (Goto-Kakisaki) rats; GK rats, glycemia at T0) was “capable of reducing”. For the same compound, the “AUC, % of activity” value (GK (Goto-Kakisaki) rats; female GK rats, IVGTT, vs control group treated with carrier) was −35%, the “Glycemia at T0, % of activity” value (GK (Goto-Kakisaki) rats; female GK rats, vs control group treated with carrier) was −11% and the activity at 50 µM ([2]; compound at 50 μM, read-out: HGP % of ctrl @ 50 μM) was 64%. For the same compound, the activity at 100 µM ([2]; compound at 100 μM, read-out: HGP % of ctrl @ 100 μM) was 39%, the activity at 10 µM (INS-1 cells; INS1, compound at 10 μM, read-out: INS-1 % of ctrl @ 10 μM) was 144% and the activity at 50 µM (INS-1 cells; INS1, compound at 50 μM, read-out: INS-1 % of ctrl @ 50 μM) was 210%.
